From US11208696B2, “Prognostic biomarkers for TTK inhibitor chemotherapy” (NETHERLANDS TRANSLATIONAL RESEARCH CENTER B.V., priority 2015, dated 2021)

Assays:
[1] = tested on: HCT116 cells; assay: Proliferation assay with isogenic cell line pair: parental HCT116 (S45del/+) and isogenic derivative lacking mutated CTNNB1; assay type: cell-based, human; conditions: for Δefficacy: difference in maximum percentage effect, isogenic (−/+) versus parental HCT116 (S45del/+), negative = parental more sensitive
[2] = tested on: CTNNB1-mutant cancer cell lines (A427, LS 174T, HCT116, SW48); assay: Cell proliferation assays, panel of sixty-six cancer cell lines: CTNNB1-mutant cell lines; assay type: cell-based, human

| IC50 ([2]; Homo sapiens, 120 h, read-out: pIC50 average Mutant (converted)) [nM] | Structure (SMILES) | Δefficacy [1] | ΔpIC50 [1] | ΔpIC50 [2] |
| --- | --- | --- | --- | --- |
|  | COc1ccc(Oc2cc(NCC3CCOCC3)c3ncc(-c4ccc(C(=O)NC5CC5)c(C)c4)n3n2)c(F)c1F [Example 5, N-cyclopropyl-4-[6-(2,3-difluoro-4-methoxy-phenoxy)-8-(tetrahydropyran-4-ylmethylamino)imidazo[1,2-b]pyridazin-3-yl]-2-methyl-benzamide, reference compound] | −26 |  |  |
| 11 | COc1cc(C(=O)NC2CCOCC2)ccc1Nc1ncc2c(n1)-n1ccc(C(=O)Nc3c(C)cccc3C)c1CC2 [Example 8, N-(2,6-dimethylphenyl)-2-[2-methoxy-4-(tetrahydropyran-4-ylcarbamoyl)anilino]-5,6-dihydropyrimido[4,5-e]indolizine-7-carboxamide] | −11 | −0.29 | −0.57 |
|  | COCC(=O)N1CCN(c2ccc(Nc3ncc4c(n3)-n3ccc(C(=O)Nc5c(C)cccc5C)c3CC4)c(OC)c2)CC1 [Example 17, N-(2,6-dimethylphenyl)-2-[2-methoxy-4-[4-(2-methoxyacetyl)piperazin-1-yl]anilino]-5,6-dihydropyrimido[4,5-e]indolizine-7-carboxamide] | −16 |  |  |
|  | CCc1n[nH]c(CC)c1NC(=O)c1ccn2c1CCc1cnc(Nc3ccc(N4CCN(C)CC4)cc3OC(F)F)nc1-2 [Example 12, N-(3,5-diethyl-1H-pyrazol-4-yl)-2-[2-(difluoromethoxy)-4-(4-methylpiperazin-1-yl)anilino]-5,6-dihydropyrimido[4,5-e]indolizine-7-carboxamide] | −18 |  |  |
